Test results taken from ChEMBL document CHEMBL4651402, “Screening of ~5500 FDA-approved drugs and clinical candidates for anti-SARS-CoV-2 activity” (2021).

System: SARS-CoV-2
Assay: microbe, parasite or virus in culture
Conditions: Severe acute respiratory syndrome coronavirus 2, Vero C1008, 48 h

Structure (SMILES)	IC50 [µM]	IC50 (read-out: pIC50 (converted)) [µM]
CC(=O)SCC(Cc1ccccc1)C(=O)NCC(=O)OCc1ccccc1 (centres undefined) [RACECADOTRIL]	> 20	> 20
O=C1CCC(c2ccc(-n3ccnc3)cc2)=NN1 [IMAZODAN]	> 20	> 20
CC(=O)OC1C=C2CCC3C(CCC4(C)C(OC(C)=O)CCC34)C2(C)CC1 (centres undefined)	> 20	> 20
O=C1CN(/N=C/c2ccc([N+](=O)[O-])o2)C(=O)N1 [NITROFURANTOIN]	> 20	> 20
CN(CC(=O)O)C(=N)N [CREATINE]	> 20	> 20
CC(=O)SCCC(=O)N1C(C)CCCC1C(=O)O (centres undefined)	> 20	> 20
C[C@@H]1CC(=O)NN=C1c1ccc2c(c1)OCC(=O)N2	> 20	> 20
CC(CNS(=O)(=O)C(C)C)c1ccc(NC(=O)c2cc(F)cc(F)c2)cc1 (centres undefined)	> 20	> 20
CCOC(=O)N1c2ccc(C(F)(F)F)cc2[C@@H](N(Cc2cc(C(F)(F)F)cc(C(F)(F)F)c2)C(=O)OC)C[C@H]1CC [TORCETRAPIB]	> 20	> 20
C=CC(=O)N[C@@H]1CN(c2nc(Nc3cn(C)nc3OC)c3ncn(C)c3n2)C[C@H]1F [MAVELERTINIB]	> 20	> 20
CCOc1ccccc1OCC1CNCCO1 (centres undefined) [VILOXAZINE]	> 20	> 20
C[C@@H]1CC[C@@]2(OC1)O[C@H]1C[C@H]3[C@H]4CC[C@H]5C[C@@H](O[C@@H]6O[C@H](CO)[C@@H](O[C@@H]7O[C@H](CO)[C@@H](O)[C@H](O)[C@H]7O)[C@H](O)[C@H]6O)CC[C@@]5(C)[C@H]4CC[C@]3(C)[C@H]1[C@@H]2C	> 20	> 20
Cc1ccc(C[N+](C)(C)C)o1	> 20	> 20
COc1ccccc1N1CCN(CC(O)COc2cccc3ccccc23)CC1 (centres undefined) [NAFTOPIDIL]	> 20	> 20
CO[C@H]1C[C@H](O[C@H]2[C@H](C)[C@@H](O[C@@H]3O[C@H](C)C[C@H](N(C)C)[C@H]3OC(C)=O)[C@@H](C)C[C@@]3(CO3)C(=O)[C@H](C)[C@H](OC(C)=O)[C@@H](C)[C@@H](C)OC(=O)[C@@H]2C)O[C@@H](C)[C@@H]1OC(C)=O	> 20	> 20
FC(F)(F)c1ccc(CNc2ccc(Cc3c[nH]c4ncc(Cl)cc34)cn2)cn1 [PEXIDARTINIB]	> 20	> 20
COc1ccc(C2CNC(=O)NC2)cc1O[C@@H]1C[C@H]2CC[C@@H]1C2	> 20	> 20
O=C(Nc1c[nH]nc1-c1nc2ccc(CN3CCOCC3)cc2[nH]1)NC1CC1 [AT-9283]	> 20	> 20
CC(C)=CCN1CC[C@]2(C)c3cc(O)ccc3C[C@H]1[C@H]2C [(+)-PENTAZOCINE]	> 20	> 20
CCOC(=O)[C@]1(c2ccccc2)CCC=C[C@H]1N(C)C [DEXTILIDINE]	> 20	> 20
COC1=C[C@@H]2C3=C([C@@H]2C1=O)[C@@H](NC(C)=O)CCc1cc(OC)c(OC)c(OC)c13	> 20	> 20
CCOC(=O)Nc1ccc(SCC2CO[C@](Cn3ccnc3)(c3ccc(Cl)cc3Cl)O2)cc1 (some centres undefined)	> 20	> 20
c1cnc2c(c1)CNC2 [6,7-DIHYDRO-5H-PYRROLO[3,4-B]PYRIDINE]	> 20	> 20
CC(C)[C@@]1(NC(=O)[C@@H]2C[C@@H]3c4cccc5[nH]cc(c45)C[C@H]3N(C)C2)O[C@@]2(O)[C@@H]3CCCN3C(=O)[C@H](Cc3ccccc3)N2C1=O [DIHYDROERGOCRISTINE]	> 20	> 20
COc1cc(NC(C)CCCN)c2ncccc2c1 (centres undefined) [PRIMAQUINE]	> 20	> 20
NS(=O)(=O)c1cc(-c2nnn[nH]2)c(NCc2cccs2)cc1Cl [AZOSEMIDE]	> 20	> 20
COC1=CC(=O)C[C@@H](C)[C@]12Oc1c(Cl)c(OC)cc(OC)c1C2=O [GRISEOFULVIN]	> 20	> 20
